Tested on: T-Skin models (reconstructed human skin)
Details: maintained 24 hrs
Method: T-Skin models were obtained from Episkin SA, France which is composed of reconstructed human skin. Each skin model consists of a dermal equivalent overlaid by a stratified, well-differentiated epidermis derived from normal human keratinocytes. Upon receiving the skin models, it was recovered by incubating in T-Skin culture medium overnight at 37° C. in a 5% CO2 incubator.
The genomic DNA (500 ng) from tissue samples were subjected to bisulfite conversion using the EZ DNA Methylation-Gold™ Kit (Zymo Research). The methylation levels were quantified using Infinium MethylationEPIC v2.0 Kit (Illumina) which can analyze over 850,000 methylation sites quantitatively across the genome at single-nucleotide resolution.
Quality check on samples was performed to keep probes that have a detection P-value <0.01 in one or more samples or have a mean detection P-value <0.05 in all samples. […]
Prior to differential methylation analysis, the probes with non-specific binding, cross reactive probes, probes affected by common SNPs, and probes annotated to the X, Y chromosomes were also filtered out. Beta-value and M-value of normalized and filtered samples were calculated using getBeta and getM function respectively, the samples were then subjected to further downstream analysis. […]

For OO [H2O2, Hydrogen peroxide], the “methylation status of probes vs cells without OS (FIG. 4A)” value (high H2O2 (200 μM) for 2 hrs) was “large number of probes that are hypomethylated” and the “methylation status of probes vs cells without OS (FIG. 3A)” value (low H2O2 (100 μM) for 2 hrs) was “large number of probes that are hypomethylated”.

From US20250290142A1, “DETECTING OXIDATIVE STRESS IN CELL(S) USING EPIGENETIC MEANS” (Evonik Operations GmbH, priority 2022, published 2025)
